Data taken from patent US5606037A, “Processes antineoplastic heteronaphthoquinones” (BioChem Pharma Inc., priority 1995, dated 1997).
Where a name gives a salt, the structure may show the parent alone.

What was measured:
Type in all cases: cell-based, Human
VLB/OV3 = assay: Resistance ratio of SKVLB over SKOV3 cytotoxicity (VLB/OV3); conditions: ratio SKVLB to SKOV3; Table 1; 2880 min
Method: The microculture tetrazolium assay was used to test in vitro cytotoxicity. This assay is described in Plumb, J. A. et al., 1989 Cancer Research 49, 4435-4440, which is herein incorporated by reference. The cytotoxicity of compounds towards tumor cells is measured in vitro using the assay. This assay method is based upon the ability of live, but not dead cells to reduce the yellow water soluble dye 3-(4,5-dimethylthiazol-2-yl)-2,5-diphenyltetrazolium bromide (MTT) to its water insoluble purple formazan product.
SKOV3 (Ovarian adenocarcinoma)--provided by Dr. V. Ling, Ontario Cancer Institute.
SKVLB (Ovarian; multidrug resistant)--Dr. V. Ling, Ontario Cancer Institute.
For each assay, doxorubicin is included as an inter-assay standard. This allows us to monitor the behaviour of the assay in general, and in particular, to check that the SKVLB line has maintained its resistant phenotype.
Cells are plated out in 100 μl of culture medium in the microtiter plates at a density of around 1,500-4,000 cells per well. The plates are incubated overnight to allow the cells to become adherent after which the test compound is added (100 μl of appropriate dilution per well). The cells are incubated with test compound at 37° C. for 48 h after which the compound is replaced with fresh medium. After a further 48 h incubation at 37° C., 50 μl of MTT solution (2 mg/ml) is added to each well. The plates are incubated in the dark for 4 h at 37° C. after which the medium is removed. The MTT formazan product is extracted from the cells by the addition of 200 μl DMSO followed by 50 μl of Sorensen's buffer. The plates are shaken briefly and the absorbance at 570 nm is read using a Molecular Devices UV max plate reader. Curves are fit to the MTT assay data using a four parameter logistic equation, and the data are normalized to fit a 0% to 100% survival scale.

[1] = tested on: T47D (Ductal carcinoma of breast); assay: In vitro cytotoxicity, microculture tetrazolium (MTT) assay, T47D; conditions: 48 h with compound, further 48 h, Table 1
In short: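 Adherent cells (1,500-4,000/well) were exposed to compound in 1:3 dilutions from 100 μM to 1.7 nM, in quadruplicate, for 48 h at 37° C, followed by 48 h in fresh medium. MTT formazan was read at 570 nm, and data were fitted by four-parameter logistic on a 0-100% survival scale.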

[2] = tested on: HT 29 (Colon adenocarcinoma); assay: In vitro cytotoxicity, microculture tetrazolium (MTT) assay, HT29; conditions: further 48 h, Table 1
In short: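 HT29 cells exposed to compound (1:3 series, 100 μM to 1.7 nM, quadruplicate) for 48 h at 37 °C, then 48 h in fresh medium. Viability by MTT reduction, formazan absorbance at 570 nm; four-parameter logistic fit on 0-100% survival scale.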

Lox (Melanoma) = assay: In vitro cytotoxicity, microculture tetrazolium (MTT) assay, LOX; conditions: 48 h with compound, further 48 h, Table 1
In short: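 LOX melanoma cells, 1,500–4,000 per well, exposed to compound (1:3 dilutions, 100 μM to 1.7 nM) for 48 h at 37° C., then 48 h in fresh medium. MTT reduction read at 570 nm; four-parameter logistic fit normalized to 0–100% survival.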

[3] = tested on: SKOV3 (Ovarian adenocarcinoma); assay: In vitro cytotoxicity, microculture tetrazolium (MTT) assay, SKOV3; conditions: for IC50: SKOV3 ovarian adenocarcinoma, 48 h with compound, further 48 h, MTT, Table 1
In short: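 Cells plated overnight, then exposed to compound (1:3 dilutions, 100 μM to 1.7 nM, quadruplicate) 48 h at 37 °C, followed by 48 h in fresh medium. MTT 4 h, formazan extracted in DMSO/Sorensen's buffer pH 10.5, A570; four-parameter logistic fit on 0–100% survival scale.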

[4] = tested on: SKVLB (Ovarian; multidrug resistant); assay: In vitro cytotoxicity, microculture tetrazolium (MTT) assay, SKVLB; conditions: for IC50: SKVLB multidrug resistant ovarian, 48 h with compound, further 48 h, MTT, Table 1
In short: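 Multidrug-resistant SKVLB ovarian cells, 1,500–4,000 per well, exposed to compound (1:3 dilutions, 100 μM to 1.7 nM, quadruplicate) for 48 h at 37 °C, then 48 h in fresh medium. Viability by MTT reduction, formazan read at 570 nm; four-parameter logistic fit on a 0–100% survival scale.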

[5] = Homo sapiens, HT-29, 48 h with compound

Compound: CC[C@@H]1CC2=C(C(=O)c3ccccc3C2=O)[C@@H](O[C@H]2C[C@H](NC(=O)C(F)(F)F)[C@H](O)[C@H](C)O2)O1 [BCH2026, (1'S, 1R, 3R)-5,10-dioxo-3-ethyl-1-(2',3',6'-trideoxy-3'-trifluoroacetamido-L-lyxohexopyranose)-3,4,5,10-tetrahydro-1H-naphtho-[2,3-c]pyran]
- VLB/OV3 (VLB/OV3): > 7
- IC50 ([1]; Homo sapiens): 31400 nM
- IC50 [2, 5]: 22000 nM
- IC50 (Lox (Melanoma); Homo sapiens): 2120 nM
- IC50 ([3]; Homo sapiens, SK-OV-3): 15000 nM
- IC50 ([4]; Homo sapiens): > 100000 nM

Compound: CO[C@@H]1O[C@@H](C(=O)Nc2ccccc2)CC2=C1C(=O)c1ccccc1C2=O (relative stereo) [BCH2041, (1,3-trans)-anline-(1-methoxy-5,10-dioxo-3,4,5,10-tetrahydro-1H-naphtho-[2,3-c]-pyran)-3-carboxamide]
- VLB/OV3 (VLB/OV3): 5
- IC50 ([1]; Homo sapiens): 5620 nM
- IC50 [2, 5]: 1900 nM
- IC50 (Lox (Melanoma); Homo sapiens): 1900 nM
- IC50 ([3]; Homo sapiens, SK-OV-3): 2140 nM
- IC50 ([4]; Homo sapiens): 10000 nM

Compound: COC1OC(C(=O)NCCCN(C)C)=CC2=C1C(=O)c1ccccc1C2=O (stereo not shown) [BCH2051, 1-Methoxy-5,10-dioxo-5,10-dihydro-1H-naphtho[2,3-c]pyran-3-[N-(3-dimethylamino-propyl)carboxamide] hydrochloride monohydrate]
- VLB/OV3 (VLB/OV3): 9.3-14.14
- IC50 ([1]; Homo sapiens): 41.9 to 68.5 nM
- IC50 [2, 5]: 91 to 134 nM
- IC50 (Lox (Melanoma); Homo sapiens): 16.7 to 30 nM
- IC50 ([3]; Homo sapiens, SK-OV-3): 7.3 to 29 nM
- in vitro antitumor potency ([3]; in vitro, Tables 1 and 2): intense in vitro antitumor potency
- IC50 ([4]; Homo sapiens): 67.5 to 403 nM
- multidrug resistance / effect in multidrug resistant cell line SKVLB ([4]; SKVLB cell line): significantly avoiding multidrug resistance

Compound: CC(=O)C1CC2=C(C(=O)c3ccccc3C2=O)C(OCC2CCN(C(=O)OC(C)(C)C)CC2)O1.Cl (racemic) [BCH2068, Methyl-(1-O-[N-BOC-4-piperidine-methanol]-5,10-dioxo-3,4,5,10-tetrahydronaphthaleno-[2,3-c]pyran-3-yl) ketone, racemic, hydrochloride]
- VLB/OV3 (VLB/OV3): 1

Compound: CC(C)[C@H]1CC2=C(C(=O)c3ccccc3C2=O)[C@H](O[C@H]2C[C@H](NC(=O)C(F)(F)F)[C@H](O)[C@H](C)O2)O1 [BCH2052, (1'S, 1S, 3R)-5,10-dioxo-3-isopropyl-1-(2',3',6'-trideoxy-3'-trifluoroacetamido-L-lyxohexopyranose)-3,4,5,10-tetrahydro-1H-naphtho-[2,3-c]-pyran]
- VLB/OV3 (VLB/OV3): 3.78-4.02
- IC50 ([1]; Homo sapiens): 9540 to 23300 nM
- IC50 [2, 5]: 10600 to 15400 nM
- IC50 (Lox (Melanoma); Homo sapiens): 3040 to 3220 nM
- IC50 ([3]; Homo sapiens, SK-OV-3): 5400 to 7010 nM
- IC50 ([4]; Homo sapiens): 20500 to 28200 nM

Compound: (1S, 2'S, 3R) and (1R, 2'S, 3S)-methyl-(1-[O-prolinol]-3,4,5,12-tetrahydronaphtho-[2,3-C]pyran-3-yl) ketone hydrochloride salt [BCH1658]
- VLB/OV3 (VLB/OV3): 6.31
- IC50 [1]: 494 nM
- IC50 ([2]; 48 h with compound): 661 nM
- IC50 (Lox (Melanoma)): 316 nM
- IC50 [3]: 233 nM
- IC50 [4]: 1470 nM

Compound: CC(=NO)[C@@H]1CC2=C(C(=O)c3ccccc3C2=O)[C@@H](O[C@H]2C[C@H](NC(=O)C(F)(F)F)[C@H](O)[C@H](C)O2)O1 [BCH2115, (1'S, 1R, 3S)-3 (oximoethyl)-5,10-dioxo-1 (2,3,6-trideoxy-3-trifluoroacetamido-L-lyxohexopyranose)-3,4,5,10-tetrahydro-1H-naphtho-(2,3-c)-pyran]
- VLB/OV3 (VLB/OV3): > 50
- IC50 [1]: 5300 nM
- IC50 ([2]; 48 h with compound): 5600 nM
- IC50 (Lox (Melanoma)): 4000 nM
- IC50 [3]: 2300 nM

Compound: CO[C@@H]1O[C@@H](C(=O)O)CC2=C1C(=O)c1ccccc1C2=O (relative stereo) [BCH2045, (1,3-trans)-1-methoxy-3-carboxyl-5,10-dioxo-3,4,5,10-tetrahydro-1H-naphtho-[2,3-c]-pyran]
- VLB/OV3 (VLB/OV3): 3
- IC50 ([1]; Homo sapiens): 13000 nM
- IC50 [2, 5]: 1110 nM
- IC50 (Lox (Melanoma); Homo sapiens): 4600 nM
- IC50 ([3]; Homo sapiens, SK-OV-3): 5300 nM
- IC50 ([4]; Homo sapiens): 15000 nM

Compound: CC(=O)C1CC2=C(C(=O)c3ccccc3C2=O)C(OCC2CCCCN2)O1 (racemic) [BCH2069, Methyl-(1-O-[2'-piperidinemethanol]-5,10-dioxo-3,4,5,10-tetrahydronaphthaleno-[2,3-c]pyran-3-yl) ketone, racemic, hydrochloride]
- VLB/OV3 (VLB/OV3): 2-9.78
- IC50 ([1]; Homo sapiens): 1110 nM
- IC50 [2, 5]: 350 nM
- IC50 (Lox (Melanoma); Homo sapiens): 90.3 nM
- IC50 ([3]; Homo sapiens, SK-OV-3): 49.4 nM
- IC50 ([4]; Homo sapiens): 83 to 483 nM

Compound: CC(=O)[C@@H]1CC2=C(C(=O)c3ccccc3C2=O)[C@@H](O[C@H]2C[C@H](NC(=O)C(F)(F)F)[C@H](O)[C@H](C)O2)O1 [BCH1184, (1'S,1R,3S)-Methyl (5,10-dioxo-1-(2',3',6'-trideoxy-3'-trifluoroacetamido-4'-hydroxy-L-lyxohexopyranose)-3,4,5,10-tetrahydronaphtho [2,3-C]pyran-3-yl) ketone]
- VLB/OV3 (VLB/OV3): 4.75-22.34
- IC50 ([1]; Homo sapiens): 284 to 530 nM
- IC50 [2, 5]: 2.3 to 16.1 nM
- IC50 (Lox (Melanoma); Homo sapiens): 18.6 to 228 nM
- IC50 ([3]; Homo sapiens, SK-OV-3): 5 to 63.1 nM
- IC50 ([4]; Homo sapiens): 53.6 to 300 nM

Compound: CC(=O)OC1C(C)OC(OC2OC(C(C)=O)CC3=C2C(=O)c2ccccc2C3=O)C(I)C1OC(C)=O (mixture of isomers) [BCH2065, (1'S,1R,1S) and (1'S,1S,3R)-methyl-(1-[2',6'-dideoxy-3',4'-diacetoxy-2'-iodo-L-arabino-hexopyranose]-5,10-dioxo-3,4,5,10-tetrahydronaphtho-[2,3-c]-pyran-3-yl) ketone]
- VLB/OV3 (VLB/OV3): 4

Compound: CO[C@H]1C[C@H](O[C@@H]2O[C@@H](C(C)=O)CC3=C2C(=O)c2ccccc2C3=O)O[C@@H](C)[C@H]1OS(C)(=O)=O [BCH2072, (1'-S, 1'S, 3-R)-methyl-(1-[2',3',4',6' tetradeoxy-3'-methoxy-4'-O-methanesulfonyl-L-lyxohexopyranose)-5,10-dioxo-3,4,5,10 tetrahydronaphtho-[2,3-c]pyran-3-yl) ketone]
- VLB/OV3 (VLB/OV3): 2.79-15.46
- IC50 ([1]; Homo sapiens): 23.6 to 350 nM
- IC50 [2, 5]: 53.9 to 101 nM
- IC50 (Lox (Melanoma); Homo sapiens): 102 nM
- IC50 ([3]; Homo sapiens, SK-OV-3): 64.1 to 113 nM
- IC50 ([4]; Homo sapiens): 315 to 991 nM

Compound: CC(=O)C1CC2=C(C(=O)c3ccccc3C2=O)C(OC[C@@H]2CCCN2C(=O)OC(C)(C)C)O1 (mixture of isomers) [BCH2067, (1S, 2'S, 3R) and (1R, 2'S, 3S)-methyl-(1-[O-N-BOC-prolinol]-5,10-dioxo-3,4,5,10-tetrahydro-1-H-naphtho[2,3-C]pyran-3-yl) ketone]
- VLB/OV3 (VLB/OV3): 2
- IC50 ([1]; Homo sapiens): 540 nM
- IC50 [2, 5]: 323 nM
- IC50 (Lox (Melanoma); Homo sapiens): 1100 nM
- IC50 ([3]; Homo sapiens, SK-OV-3): 1200 nM

Compound: C=CC[C@@H]1CC2=C(C(=O)c3ccccc3C2=O)[C@@H](O[C@H]2C[C@H](NC(=O)C(F)(F)F)[C@H](O)[C@H](C)O2)O1 (mixture of isomers) [BCH2031, (1'S,1S,3S) and (1'S,1-R,3-R)-3-([2',3',6'-trideoxy-3'-trifluoroacetamido-4'-hydroxy-L-lyhohexopyranose]-5,10-dioxo-3,4,5,10-tetrahydronaphtho-[2,3-c]-pyran-3-yl)-propene]
- VLB/OV3 (VLB/OV3): 3
- IC50 [1]: 16000 nM
- IC50 ([2]; 48 h with compound): 8500 nM
- IC50 (Lox (Melanoma)): 2800 nM
- IC50 [3]: 6000 nM
